Values quoted from earlier work in US20090192228A1 (ACTAVIS GROUP PTC EHF, priority 2008, published 2009).

Settings: compared with oxybutynin

SMILES: CC(C)N(CCC(c1ccccc1)c1cc(CO)ccc1O)C(C)C (stereo not shown)
- Side-effects relative to oxybutynin, particularly propensity to cause dry mouth: considerably fewer side-effects
